Peptide text beside a SMILES is read from it.
What was measured:
[1] = biological target: chymotrypsin (Bos taurus, UniProt P00766); test: Chymotrypsin inhibition determination (fluorogenic substrate, Morrison Ki); type: biochemical; settings: Morrison equation; substrate succinyl-Ala-Ala-Pro-Phe-AMC in PBS; Km = 17.15 μM, [S] = 42.86 μM, Et = 0.0020 μM; peptide 0.1–100 µM; nine replications in three experiments; N.I. = no inhibitory effect
Method: (§1) Phe-Pro-Arg-AMC (Bachem, Merseyside, UK) and succinyl-Ala-Ala-Pro-Phe-AMC (Bachem, Merseyside, UK) were used as substrates for trypsin and chymotrypsin inhibition determinations, respectively. Serial peptide dilutions (0.1–100 µM in phosphate buffered saline (PBS)) were incubated with 180 µL of substrate solution (50 µM in PBS) in a black 96-well plate under dark conditions for 10 min. Immediately prior to measurement, 10 µL of trypsin/chymotrypsin working solution (0.1 µM in PBS) was added to each well (final volume of 210 µL) in the plate. Subsequently, the fluorescence intensity was measured with the FLUO star OPTIMA plate reader (BMG Labtech, Ortenberg, Germany). The whole measurement process lasted for 30 min and was carried out at an emission wavelength of 460 nm and an excitation wavelength of 395 nm. The inhibition curves of trypsin and chymotrypsin were analyzed by non-linear regression using the Morrison equation in Prism 9 (Trypsin Km = 67.38 μM; Chymotrypsin Km = 17.15 μM; [S] = 42.86 μM; Et = 0.0020 μM).

[2] = test system: MRSA (NCTC 12493); type: cell-based, methicillin-resistant Staphylococcus aureus; settings: for MIC: MHB, 5 × 10^5 CFU/mL, overnight; for MBC: clear wells spotted onto MHA
Method: (§2) The antimicrobial efficacy screening of the purified peptides was performed by MIC/MBC experiments on the following six different bacteria and an opportunistic pathogenic yeast: E. coli (ATCC 8739), Klebsiella pneumoniae (K. pneumoniae) (ATCC 43816), Pseudomonas aeruginosa (P. aeruginosa) (ATCC 9027), Staphylococcus aureus (S. aureus) (ATCC 6538), methicillin-resistant Staphylococcus aureus (MRSA) (NCTC 12493), Enterococcus faecium (E. faecium) (NCTC 12697), and Candida albicans (C. albicans) (ATCC 10231). First, frozen beads of respective cultures were inoculated into Mueller Hinton broth (MHB) medium and incubated overnight at 37 °C. Next, 500 µL of respective suspensions were added to the fresh MHB medium for incubation, and then sub-cultured until reaching the log growth phase, which was determined by measuring the absorbance of cultures at a wavelength of 550 nm. Then, the subcultures were diluted to 5 × 10^5 CFU/mL and 99 µL of suspension was removed and mixed with 1 µL of peptide solution at different concentrations (double-dilution of 12,800 to 100 µM) in a 96-well plate. The blank control, vehicle control, growth control, and the positive control groups were prepared according to the conditions mentioned previously. The peptide solutions were added to the plate and mixed with the diluted microbial suspensions. After overnight incubation, the absorbance at 550 nm of each well was measured with a Synergy HT plate reader (Biotech, Minneapolis, MN, USA). Subsequently, the samples in each clear well were spotted onto Mueller Hinton agar (MHA) plates for the MBC assays of the tested peptides.

[3] = test system: E. faecalis (NCTC 12697); type: cell-based; settings: for MIC: MHB, 5 × 10^5 CFU/mL, overnight; for MBC: clear wells spotted onto MHA
Method: as §2

[4] = test system: E. coli biofilm; test: Antibiofilm assays (MBIC/MBEC, crystal violet); type: cell-based, Escherichia coli; settings: for Concentration inhibiting biofilm formation (MBIC): E. coli, LB + 1% glucose, overnight 37 °C, crystal violet 595 nm, tested 1 to 128 µM; for Effect on existing biofilms (MBEC): E. coli pre-formed biofilm, 24 h, highest experimental concentration 128 µM
Method: To explore the ability of peptides to inhibit and eradicate the biofilm of E. coli, the minimum biofilm inhibition concentrations (MBICs) and minimum biofilm eradication concentrations (MBECs) were tested, respectively. Luria-Bertani broth (LB) medium containing 1% glucose was used to culture E. coli. The subcultured bacteria were diluted to 5 × 10^5 CFU/mL and 99 µL of this bacterial suspension was used to mix with 1 µL of peptide solution at different concentrations (double-dilution of 12,800 to 100 µM) in a 96-well plate. After overnight culture in an oscillating incubator at 37 °C and 220 rpm, the formed biofilm was washed twice with 100 µL PBS, then fixed in methanol. Next, biofilm formation was evaluated by 0.1% crystal violet staining. After dyeing for 15 min, the excess crystal violet was washed off and 30% glacial acetic acid was added to each well of a 96-well plate after drying. Then, the plate was shaken for 15 min, and the absorbance was measured at 595 nm using the Synergy HT plate reader. For the determination of MBEC, after the biofilm was formed, it was first washed twice with PBS, then the fresh medium and different concentrations of peptide (similar to MBIC experiments) were added and incubated at 37 °C at 220 rpm. The absorbance measurement was the same as previously described after 24 h of MBIC.

[5] = biological target: T1, trypsin (Bos taurus, UniProt P00760); test: Trypsin inhibition determination (fluorogenic substrate, Morrison Ki); type: biochemical; settings: Morrison equation; substrate Phe-Pro-Arg-AMC in PBS; Km = 67.38 μM, [S] = 42.86 μM, Et = 0.0020 μM; peptide 0.1–100 µM; nine replications in three experiments; N.I. = no inhibitory effect
T1 construct: gene PRSS1
T1 sequence (P00760 24-246): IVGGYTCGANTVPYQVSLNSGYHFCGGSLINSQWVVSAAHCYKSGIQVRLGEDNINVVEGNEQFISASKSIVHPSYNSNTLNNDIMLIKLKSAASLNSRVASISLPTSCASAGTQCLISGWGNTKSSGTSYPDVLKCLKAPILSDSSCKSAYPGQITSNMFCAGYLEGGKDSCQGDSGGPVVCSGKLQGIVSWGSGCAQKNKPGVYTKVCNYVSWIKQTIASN
Method: as §1

[6] = test system: P. aeruginosa (ATCC 9027); type: cell-based, Pseudomonas aeruginosa; settings: for MIC: MHB, 5 × 10^5 CFU/mL, overnight; for MBC: clear wells spotted onto MHA
Method: as §2

[7] = test system: E. coli (ATCC 8739); type: cell-based, Escherichia coli; settings: for MIC: MHB, 5 × 10^5 CFU/mL, overnight; for MBC: clear wells spotted onto MHA
Method: as §2

[8] = test system: S. aureus (ATCC 6538); type: cell-based, Staphylococcus aureus; settings: for MIC: MHB, 5 × 10^5 CFU/mL, overnight, absorbance 550 nm; for MBC: clear wells spotted onto MHA
Method: as §2

[9] = test system: K. pneumoniae (ATCC 43816); type: cell-based, Klebsiella pneumoniae; settings: for MIC: MHB, 5 × 10^5 CFU/mL, overnight; for MBC: clear wells spotted onto MHA
Method: as §2

[10] = test system: C. albicans (ATCC 10231); type: cell-based, Candida albicans; settings: for MIC: MHB, 5 × 10^5 CFU/mL, overnight; for MBC: clear wells spotted onto MHA
Method: as §2

| SMILES | Ki [1] [µM] | MIC [2] [µM] | MBC [2] [µM] | MIC [3] [µM] | MBC [3] [µM] | Concentration inhibiting biofilm formation (MBIC) [4] [µM] | Trypsin Ki [5] | MIC [6] [µM] | MBC [6] [µM] | MIC [7] [µM] | MBC [7] | MIC [8] [µM] | MBC [8] [µM] | MIC [9] [µM] | MBC [9] [µM] | MIC [10] [µM] | MBC [10] [µM] | Chymotrypsin Ki [1] | Ki [5] [µM] | Effect on existing biofilms (MBEC) [4] [µM] |
| --- | --- | --- | --- | --- | --- | --- | --- | --- | --- | --- | --- | --- | --- | --- | --- | --- | --- | --- | --- | --- |
| CC(C)C[C@H](NC(=O)[C@H](CCCCN)NC(=O)[C@H](C)NC(=O)[C@H](C)N)C(=O)N1CCC[C@H]1C(=O)N[C@@H](Cc1ccccc1)C(=O)N[C@@H](CCCNC(=N)N)C(=O)N[C@H]1CSSC[C@@H](C(=O)O)NC(=O)[C@H](Cc2ccccc2)NC(=O)[C@H](C)NC(=O)[C@H](C)NC(=O)[C@H](Cc2ccccc2)NC1=O [F9-KOV2] (HELM PEPTIDE1{A.A.K.L.P.F.R.C.F.A.A.F.C}$PEPTIDE1,PEPTIDE1,8:R3-13:R3$$$V2.0) | 2.19 | >128 | >128 | >128 | >128 | > 128 | N.I. | >128 | >128 | >128 | >128 µM | >128 | >128 | >128 | >128 | >128 | >128 | – | – | – |
| CC(C)C[C@H](NC(=O)[C@H](CCCCN)NC(=O)[C@H](C)NC(=O)[C@H](C)N)C(=O)N1CCC[C@H]1C(=O)N[C@@H](Cc1ccccc1)C(=O)N[C@@H](CCCNC(=N)N)C(=O)N[C@H]1CSSC[C@@H](C(=O)O)NC(=O)[C@H](Cc2ccccc2)NC(=O)[C@H](C)NC(=O)[C@H](C)NC(=O)[C@H](CCCCN)NC1=O [Kunitzin-OV2] (HELM PEPTIDE1{A.A.K.L.P.F.R.C.K.A.A.F.C}$PEPTIDE1,PEPTIDE1,8:R3-13:R3$$$V2.0) | – | >128 | >128 | >128 | >128 | > 128 | – | >128 | >128 | 128 | 128/128 µM | >128 | >128 | >128 | >128 | >128 | >128 | N.I. | 9.82 | – |
| CC(C)C[C@H](NC(=O)[C@H](CCCCN)NC(=O)[C@H](C)NC(=O)[C@H](C)NC(=O)CNC(=O)CNC(=O)[C@H](CCCNC(=N)N)NC(=O)[C@H](CCCNC(=N)N)NC(=O)[C@H](CCCNC(=N)N)NC(=O)[C@H](CCC(N)=O)NC(=O)[C@H](CCCNC(=N)N)NC(=O)[C@H](CCCNC(=N)N)NC(=O)[C@H](CCCCN)NC(=O)[C@H](CCCCN)NC(=O)[C@@H](N)CCCNC(=N)N)C(=O)N1CCC[C@H]1C(=O)N[C@@H](Cc1ccccc1)C(=O)N[C@@H](CCCNC(=N)N)C(=O)N[C@H]1CSSC[C@@H](C(=O)O)NC(=O)[C@H](Cc2ccccc2)NC(=O)[C@H](C)NC(=O)[C@H](C)NC(=O)[C@H](Cc2ccccc2)NC1=O [TAT-F9-KOV2] (HELM PEPTIDE1{R.K.K.R.R.Q.R.R.R.G.G.A.A.K.L.P.F.R.C.F.A.A.F.C}$PEPTIDE1,PEPTIDE1,19:R3-24:R3$$$V2.0) | 2.23 | >128 | >128 | >128 | >128 | 16 | N.I. | >128 | >128 | 8 | 8/8 µM | 64 | 128 | >128 | >128 | >128 | >128 | – | – | > 128 |
| CC(C)C[C@H](NC(=O)[C@H](CCCCN)NC(=O)[C@H](C)NC(=O)[C@H](C)NC(=O)CNC(=O)CNC(=O)[C@H](CCCNC(=N)N)NC(=O)[C@H](CCCNC(=N)N)NC(=O)[C@H](CCCNC(=N)N)NC(=O)[C@H](CCC(N)=O)NC(=O)[C@H](CCCNC(=N)N)NC(=O)[C@H](CCCNC(=N)N)NC(=O)[C@H](CCCCN)NC(=O)[C@H](CCCCN)NC(=O)[C@@H](N)CCCNC(=N)N)C(=O)N1CCC[C@H]1C(=O)N[C@@H](Cc1ccccc1)C(=O)N[C@@H](CCCNC(=N)N)C(=O)N[C@H]1CSSC[C@@H](C(=O)O)NC(=O)[C@H](Cc2ccccc2)NC(=O)[C@H](C)NC(=O)[C@H](C)NC(=O)[C@H](CCCCN)NC1=O [TAT-KOV2] (HELM PEPTIDE1{R.K.K.R.R.Q.R.R.R.G.G.A.A.K.L.P.F.R.C.K.A.A.F.C}$PEPTIDE1,PEPTIDE1,19:R3-24:R3$$$V2.0) | – | >128 | >128 | 128 | > 128 | 8 | – | >128 | >128 | 4 | 4/4 µM | 32 | 64 | >128 | >128 | >128 | >128 | N.I. | 10.1 | > 128 |

From paper PMC9501525, “Conjugation of a Cationic Cell-Penetrating Peptide with a Novel Kunitzin-like Trypsin Inhibitor: New Insights for Enhancement of Peptide Bioactivities” (Pharmaceutics, 2022)
